Measurements as given in PubChem BioAssay (NCI).
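Exposure lasted 48 hours, with cells grown in 96-well plates and compounds tested at five concentrations. The concentration for 50% growth inhibition is given as GI50. TGI denotes the concentration required for complete inhibition of growth.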

What was measured:
Experiment in all cases: DTP human tumour cell line panel, 48 h
HCT-15 colon = system: HCT-15 colon
NCI-H226 lung = system: NCI-H226 lung
NCI-H460 lung = system: NCI-H460 lung
OVCAR-3 ovarian = system: OVCAR-3 ovarian
SF-268 CNS = system: SF-268 CNS
SK-MEL-28 melanoma = system: SK-MEL-28 melanoma
A498 renal = system: A498 renal
DU-145 prostate = system: DU-145 prostate
MDA-N = system: MDA-N
CAKI-1 renal = system: CAKI-1 renal

Compound | TGI (HCT-15 colon) [µM] | TGI (NCI-H226 lung) [µM] | TGI (NCI-H460 lung) [µM] | TGI (OVCAR-3 ovarian) [µM] | TGI (SF-268 CNS) [µM] | TGI (SK-MEL-28 melanoma) [µM] | TGI (A498 renal) [µM] | TGI (DU-145 prostate) [µM] | TGI (MDA-N) [µM] | TGI (CAKI-1 renal) [µM] | GI50 (A498 renal) [µM] | GI50 (DU-145 prostate) [µM] | GI50 (HCT-15 colon) [µM] | GI50 (NCI-H226 lung) [µM] | GI50 (NCI-H460 lung) [µM] | GI50 (OVCAR-3 ovarian) [µM] | GI50 (SF-268 CNS) [µM] | GI50 (CAKI-1 renal) [µM] | GI50 (SK-MEL-28 melanoma) [µM]
COC1=NCc2ccccc2-c2ccccc21 | > 100 | > 100 | > 100 | > 100 | > 100 | > 100 |  |  |  |  |  |  |  |  |  |  |  |  | 
CN(C)CCNc1ccc2c(=O)n(CCN(C)C)c(=O)n3c4ccc(O)cc4c(=O)c1c23 | 4.35 | 0.322 | 0.174 | 1.29 | 0.416 | 0.863 | 0.515 | 0.0781 | 0.26 |  |  |  |  |  |  |  |  |  | 
Cc1ccc(C(=N)c2ccccc2Cc2cccc3ccccc23)c2ccccc12 | > 100 | > 100 | > 100 | > 100 | > 100 | > 100 | > 100 | > 100 |  | > 100 |  |  |  |  |  |  |  |  | 
C1=C(c2ccccc2)SC(N2CCCCC2)S1 (stereo not drawn) | > 100 | > 100 | > 100 | > 100 | > 100 |  | > 100 |  |  |  |  |  |  |  |  |  |  |  | 
COC(=O)C1(NC(=O)C(CC(=O)OCc2ccccc2)NC(=O)OCc2ccccc2)CCCCCC1 (stereo not drawn) | > 100 | 72.7 | > 100 | > 100 | > 100 | > 100 |  | > 100 | 61.4 | 48.5 |  |  |  |  |  |  |  |  | 
CN1CCC(CNc2cc(C3(C(=O)Nc4cc(C(=O)Nc5ccc(Cl)c(C(F)(F)F)c5)ccc4F)CC3)ncn2)CC1 | 4.19 | 36.1 | 5.38 | 8.44 | 5.5 |  | 7.87 | 15.8 |  |  | 2.52 | 3.99 | 1.6 | 13.6 | 2.13 | 2.57 | 2.08 |  | 
O=C(Nc1ccccc1)N(C1=NCC(CI)S1)c1ccc(F)c(F)c1 (stereo not drawn) | > 100 |  | > 100 | > 100 | > 100 | 38.4 | > 100 | > 100 | 96.3 | > 100 |  |  |  |  |  |  |  |  | 
CCCCCOc1ccc(C=Nc2ccc(CCc3ccc(N=Cc4ccc(OCCCCC)cc4)cc3)cc2)cc1 | > 100 | > 100 | > 100 | > 100 | > 100 | > 100 | > 100 |  |  |  |  |  |  |  |  |  |  |  | 
Cc1ccc(C)c(NC(=O)C(=O)C(C(=O)c2ccc3ccccc3c2)C2OC(=O)c3ccccc32)c1 (stereo not drawn) | 44.8 | 17.2 | 27.7 |  | 23.2 | 34.4 | 47.4 |  |  | 52.6 |  |  |  |  |  |  |  |  | 
O=C1C=CC(=O)c2c1ccc1c3ccccc3n(Cc3ccc([N+](=O)[O-])cc3)c21 | > 100 | > 100 | > 100 | > 100 | > 100 | > 100 |  | > 100 | > 100 | > 100 |  |  |  |  |  |  |  |  | 
Cc1ccc(S(=O)(=O)NC(=O)Nc2nnc(S(N)(=O)=O)s2)cc1 | > 100 | > 100 | > 100 | > 100 | > 100 |  | > 100 | > 100 |  | > 100 |  |  |  |  |  |  |  |  | 
Cc1cc([NH-])c([NH-])cc1C.[Cl][Pt+2][Cl] | 32.3 | 64 | > 43.8 | 33.6 | 34.6 | 39.5 | > 87.6 |  |  | 27.6 | 33.4 |  | 10.9 | 13.5 | 4.97 | 17.9 | 6.27 | 12 | 16.7
O=c1[nH]/c(=C/c2ccc(OCc3ccccc3)cn2)c(=O)[nH]/c1=C/c1ccccc1 | > 46.4 |  | > 100 | > 78.6 | > 100 | > 100 | > 100 |  |  | > 100 |  |  |  |  |  |  |  |  | 
C=CCC1(C#N)C(=S)NC2=C(C(=O)CC(C)(C)C2)C1c1ccccc1 (stereo not drawn) | > 100 | > 100 |  |  |  | > 100 |  | 40.5 | > 100 | > 100 |  |  |  |  |  |  |  |  | 
Nc1n(CC(=O)c2ccccc2)nc2sc(-c3ccccc3)n[n+]12 | > 100 | 52.2 | 30.5 | 38.9 | 62.5 | > 100 | 86.9 | 87.7 |  | 91.7 |  |  |  |  |  |  |  |  | 
CCc1n[nH]c(=O)n1CCCCCCCCCCCCn1c(CC)n[nH]c1=O | > 100 | > 100 | 71.9 | > 100 | > 100 |  | > 100 |  | > 100 | > 100 |  |  |  |  |  |  |  |  | 
CC(C)(C)c1ccc(OCCOc2ccc(C(C)(C)C)cc2N)c(N)c1 | > 100 | > 100 | > 100 | > 100 | > 100 | > 100 | > 100 | > 100 |  | > 100 |  |  |  |  |  |  |  |  | 
C[C@H](c1ccccc1)N1C(=O)[C@@H](O)[C@H]1[C@H](CO)OCc1ccccc1 | > 100 | > 100 |  | > 100 | > 100 | > 100 | > 100 | > 100 | > 100 |  |  |  |  |  |  |  |  |  | 

Compound | TGI (HCT-15 colon) [µM] | TGI (NCI-H226 lung) [µM] | TGI (NCI-H460 lung) [µM] | TGI (OVCAR-3 ovarian) [µM] | TGI (SF-268 CNS) [µM] | TGI (SK-MEL-28 melanoma) [µM] | TGI (A498 renal) [µM] | TGI (DU-145 prostate) [µM] | TGI (MDA-N) [µM] | TGI (CAKI-1 renal) [µM] | GI50 (A498 renal) [µM] | GI50 (DU-145 prostate) [µM] | GI50 (HCT-15 colon) [µM] | GI50 (NCI-H226 lung) [µM] | GI50 (NCI-H460 lung) [µM] | GI50 (OVCAR-3 ovarian) [µM] | GI50 (SF-268 CNS) [µM] | GI50 (CAKI-1 renal) [µM] | GI50 (SK-MEL-28 melanoma) [µM]
CCN(CCCOc1ccccc1)CCN(CC)CCCOc1ccccc1 | 30 | 46.8 | 34.9 | 31.9 | 28.4 | 36.7 |  | 23.9 |  | 34 |  |  |  |  |  |  |  |  | 
CC(C)(C)c1ccccc1N1C(=O)c2ccc3c4c(ccc(c24)C1=O)N(c1ccccc1C(C)(C)C)C3=O | > 100 |  | > 100 | > 100 | > 100 | > 100 |  | > 100 | > 100 | > 100 |  |  |  |  |  |  |  |  | 
CCO/C(=N/S(=O)(=O)C(F)(F)F)N(C(C)C)C(C)C | > 100 |  | > 100 |  | > 100 | > 100 | > 100 | > 100 | > 100 | > 100 |  |  |  |  |  |  |  |  | 
CC(C)=CCN1c2ccccc2NC(=O)CC1C (stereo not drawn) | > 100 | > 100 | > 100 | > 100 | > 100 | > 100 | > 100 | > 100 |  | > 100 |  |  |  |  |  |  |  |  | 
NC(=O)Nc1c(Cl)cc(S(N)(=O)=O)cc1Cl | > 100 | > 100 |  | > 100 | > 100 | > 100 |  | > 100 | > 100 | > 100 |  |  |  |  |  |  |  |  | 
CCNCCNC(=O)c1ccc(I)cc1 | > 100 | > 100 | > 100 | > 100 | > 100 | > 100 | > 100 |  |  | > 100 |  |  |  |  |  |  |  |  | 
O=C(Nc1ccc(N2C(=O)CSC2c2ccccc2O)cc1)c1ccc(N2C(=O)CSC2c2ccccc2O)cc1 (stereo not drawn) | > 100 |  | > 100 | > 100 | > 100 | > 100 |  | > 100 | > 100 | > 100 |  |  |  |  |  |  |  |  | 
C=CCSC1=N/C(=C\c2ccc(Cl)cc2)C(=O)N1CC=C | > 100 |  | > 100 | > 100 | > 100 | > 100 | 52.4 | > 100 | > 100 | > 100 |  |  |  |  |  |  |  |  | 
CN1CCN(C(=S)N(C)C(=O)c2ccco2)CC1 | > 100 | > 100 | > 100 | > 100 |  |  |  | > 100 | > 100 |  |  |  |  |  |  |  |  |  | 
C[C@@H]1OC(=O)C[C@H]2CC(=O)N(CCC3CN(C(=O)OCc4ccccc4)c4ccccc43)C[C@@H]21 (stereo partly drawn) | > 100 |  | > 100 | > 100 | > 100 | > 100 | > 100 | > 100 | > 100 | > 100 |  |  |  |  |  |  |  |  | 
c1ccc(-c2csc3c4ccccc4c4ccccc4[n+]23)cc1 | > 78.7 | 11.5 | 10.2 | 5.29 | 9.65 | 7.96 | 33.4 |  |  | > 36 |  |  |  |  |  |  |  |  | 
N=C1C(=N)c2ccccc2-c2ccccc21.[Cl-].[Ru+2].c1ccc(-c2ccccn2)nc1.c1ccc(-c2ccccn2)nc1 | > 100 |  | > 100 | > 100 | > 100 | > 100 |  |  |  |  |  |  |  |  |  |  |  |  | 
C[C@@]1(O)C2CC3CC1(c1ccccc1)CC(/C3=N/O)/C2=N\O (stereo partly drawn) | > 100 | > 100 | > 100 | > 100 | > 100 | > 100 | > 100 | > 100 |  | > 100 |  |  |  |  |  |  |  |  | 
CNC(C)(C)Cc1ccc(Cl)cc1 |  |  | > 100 | > 100 | > 100 | > 100 | > 100 |  |  | > 100 |  |  |  |  |  |  |  |  | 
CCn1nc(C)c2c1C(=O)NCC(=O)N2 | > 100 |  | > 100 | > 100 | > 100 | > 100 | > 100 | > 100 | > 100 | > 100 |  |  |  |  |  |  |  |  | 
O=c1[nH]c2nc3ccccc3c(=O)n2/c1=C/c1ccc(Cl)cc1 | > 100 |  |  | > 100 | > 100 | > 100 |  | > 100 | 59.5 | > 100 |  |  |  |  |  |  |  |  | 
CCOC(=O)c1ccc(-n2[nH]nc(C(N)=O)c2=O)cc1 | > 100 | > 100 | > 100 | > 100 | > 100 | > 100 |  | > 100 | > 100 | > 100 |  |  |  |  |  |  |  |  | 
c1ncn(C23C4C5C6C4C2C6C53)n1 (stereo not drawn) | > 100 | > 100 | > 100 |  | > 100 | > 100 | > 100 | > 100 | > 100 |  |  |  |  |  |  |  |  |  | 
